Tests used:
[1] = tested on: RAW 264.7 mouse macrophage-like cells (osteoclast precursors); assay: Cell death assay (annexin V-FITC / propidium iodide flow cytometry); assay type: cell-based; conditions: 50 μM zoledronate, 24 hours
Experimental: MC3T3 cells, which are well-established mouse calvarial cells of osteoblastic lineage, and RAW 264.7 mouse macrophage-like cells, which are well-known to form osteoclasts, were purchased from the American Type Culture Collection and Tissue (Manassas, Va.). MC3T3 and RAW 264.7 cells were grown in Dulbecco's Modified Eagle Medium supplemented with 10% fetal bovine serum, 100 μ/mL penicillin, […] streptomycin, and 0.1% fungizone (amphotericin B). The cells were kept at 37° C. in a humidified atmosphere of 5% CO2 and 95% air.
Cell number was measured, and the cells were centrifuged and resuspended in binding buffer (A.G. Scientific, San Diego, Calif.) to a final cell density of 5×10^5 cells/mL. […] of annexin V-FITC (A.G. Scientific, San Diego, Calif.) was added to […] of cell suspension and incubated for 10 minutes. The cells were centrifuged, washed with PBS and resuspended again in […] of binding buffer. […] of 20 mg/mL propidium iodide (A.G. Scientific, San Diego, Calif.) was added to the cell suspension, and flow cytometry was performed using a FACS Calibur (Becton Dickson, Franklin Lakes, N.J.). Monoparametric cytograms of annexin V-FITC fluorescence (FL1) versus number of events were created using the CellQuest program gating for living cells and excluding dead cells on the basis of their propidium iodide uptake.

[2] = tested on: rodent osteolysis model (UHMWPE wear debris, femur); assay: First in vivo study: Faxitron and micro-CT imaging of osteolysis around implants; parameters: species or system rat; conditions: 24 weeks, vs HA-coated control
Source text: (§1) More particularly, sterile ultrahigh molecular weight polyethylene (UHMWPE) wear debris particles (0.5 cc, 0.1-3 micron particle size) were introduced into the intramedullary cavity of bilateral femurs of 8 rats, which served as the control group in this example. The particles were introduced after reaming the femurs with an 18 gauge needle at the knee joint. Sterile wear debris particles were used in this example to stimulate a wear debris reaction and promote osteolysis. Hydroxyapatite-coated plastic pins and hydroxyapatite-coated titanium pins (1.5 mm×20 mm, Stryker, Kalamazoo, Mich.) were then inserted into the intramedullary canal of the right femur and left femur, respectively.
(§2) The test group, which consisted of 8 rates, also had 0.5 cc of sterile UHMWPE wear debris particles introduced into the femoral intramedullary canal after reaming with an 18 gauge needle at the knee joint.
The rats of the test and control groups were sacrificed at 24 weeks following insertion of the pins and the femurs were retrieved. Faxitron radiographs (Faxitron, Wheeling, Ill.) of the femurs taken from the test and control rats were obtained. […] The femurs with plastic pin implants (the right femurs) were imaged by micro-CT (Stratec XCT-3000, Stratec Medizintechnik GmbH, Pforzheim, Germany).

[3] = tested on: rodent osteolysis model (UHMWPE wear debris, femur); assay: First in vivo study: pull-out strength testing of titanium pins; parameters: species or system rat; conditions: 24 weeks
Source text: as §1, §2
Incorporation of the implants by the host bone was evaluated by “pull-out strength testing” of the titanium pins (left femurs) (MTS 858 Bionix, MTS Systems Corporation, Minneapolis, Minn.). Such “pull-out strength testing” measures the amount of force (i.e., pull force) that must be applied to displace (or remove) the implant from the bone.

[4] = tested on: polyethylene particle-induced osteolysis rodent femur model; assay: Second in vivo study: dual energy X-ray absorptiometry (DXA); parameters: species or system Sprague-Dawley rats; bone area (DXA): unit not given here; conditions: HA-coated nail soaked in 50 μM zoledronate, 6 weeks and 6 months pooled
Source text: (§3) Experimental Design and Surgical Procedure. In this example, a polyethylene particle-induced osteolysis rodent femur model was used to examine the advantages of using a HA-zoledronate composite on the implant surface for osseous integration and implant stability in the presence of UHMWPE particles. Two critical parameters were examined, namely, peri-implant bone quality (osteolysis) and osseointegration (implant stability).
All procedures involving animals were approved by the Institutional Animal Care and Use Committee in accordance with the Association for the Assessment and Accreditation of Laboratory Animal Care guidelines (Columbia University Animal Proctocol AC-AAM5306). In this example, a rodent femur intramedullary nailing model was used with UHMWPE wear debris particles instilled into the intramedullary canal after reaming the femur to stimulate a wear debris reaction. Thirty-two six-month-old adult male Sprague-Dawley rats (weight, 400-500 gm) were purchased (Charles Laboratory, Cambridge, Mass.).
(§4) The 32 rats were divided into two study groups, each composed of 16 rats. Sixteen randomly selected rats served as a control group, which received HA-coated nails. […] Eight rats in each group were sacrificed at 6 weeks following the intramedullary nailing of HA-coated implants and another 8 rats from each group were sacrificed 6 months following the surgery.
After induction of general anesthesia using ketamine (60 mg/kg) and xylazine (5 mg/kg), hair over the knee was removed with a clipper. Right and left knee regions were prepared with 70% alcohol and 1% Betadine solution. A one centimeter longitudinal skin incision was made over the anterior aspect of the distal femur. […]
(§5) In the control group, a radiolucent UHMWPE intramedullary nail, which was coated with HA, was implanted into the right distal femur in a retrograde manner, while a HA-coated titanium intramedullary nail was implanted into the left distal femur. […] Activity level, food intake, the condition of the surgical wound, and clinical signs of infection were monitored daily. […]

[5] = tested on: polyethylene particle-induced osteolysis rodent femur model; assay: Second in vivo study: micro-CT periprosthetic bone area; parameters: species or system Sprague-Dawley rats; conditions: HA-coated UHMWPE nail soaked in 50 μM zoledronate; right femora; times pooled; p<0.0001 vs control
Source text: as §3
The 32 rats were divided into two study groups, each composed of 16 rats. Sixteen randomly selected rats served as a control group, which received HA-coated nails. […] Eight rats in each group were sacrificed at 6 weeks following the intramedullary nailing of HA-coated implants and another 8 rats from each group were sacrificed 6 months following the surgery. […]
as §5
Micro-computed Tomography (micro-CT). The right femura with UHMWPE pins were imaged using a quantitative CT (Stratec XCT-3000), running the XCT Series software, version 5.21 (Stratec Medizintechnik GmbH, Pforzheim, Germany). […]

[6] = tested on: polyethylene particle-induced osteolysis rodent femur model; assay: Second in vivo study: biomechanical pull-out testing; parameters: species or system Sprague-Dawley rats
Source text: as §3, §4
After induction of general anesthesia using ketamine (60 mg/kg) and xylazine (5 mg/kg), hair over the knee was removed with a clipper. Right and left knee regions were prepared with 70% alcohol and 1% Betadine solution. A one centimeter longitudinal skin incision was made over the anterior aspect of the distal femur. A medial parapatellar approach was made to expose the intercondylar notch with the knee in flexion. An entry hole was made with a 18-gauge needle. The distal rat femora were reamed with an 18-gauge needle, and then Ceridust® UHMWPE particles (0.1 mL of 50 vol. %; 0.1 to 3 micron in size; Clariant GmbH, Germany) were introduced into the intradmedullary canal prior to implantation.
In the control group, a radiolucent UHMWPE intramedullary nail, which was coated with HA, was implanted into the right distal femur in a retrograde manner, while a HA-coated titanium intramedullary nail was implanted into the left distal femur. The joint capsule was repaired using a 2-0 Vicryl® suture (Johnson & Johnson, New Brunswick, N.J.). The skin was repaired with metal staples. Rats were allowed weight bearing as tolerated in their cages, while subcutaneous injections of buprenorphine (0.05 mg/kg) were given once a day for two post-operative days. Activity level, food intake, the condition of the surgical wound, and clinical signs of infection were monitored daily.
The purpose of using the UHMWPE nail was to minimize imaging artifacts inherent in metal implants for a more accurate analysis of dual energy x-ray absorptiometry (DXA) and microcomputed tomography (micro-CT) analyses, which are describe below. The metallic nail was used for biomechanical testing. The intramedullary nails, 1.4 mm in diameter and 20 mm in length, were custom-made for this study (Stryker, Mahwah, N.J.).
Biomechanical Testing. The left femora of both the 6-week and 6-month control and treatment groups were subjected to biomechanical testing following the imaging studies described herein. […]

[7] = tested on: MC3T3 cells; assay: Cytokine gene expression after A23187 treatment (Quantitative-RT PCR); assay type: cell-based; conditions: 1 to 6 hours after stimulation, relative to controls
Experimental: Wear particles and calcium signaling induce cytokine expression in macrophages and osteoblasts. Cytokine gene expression was measured following A23187 treatment in MC3T3 cells by Quantitative-RT PCR. RNA was isolated from the cells using an RNeasy Mini Kit (Qiagen, Valencia, Calif.), and Quantitative-RT PCR was performed using a SYBR Green master mix (Roche, Ind.).

[8] = HA-coated titanium nail soaked in 50 μM zoledronate, left femora, times pooled, p<0.0001 vs control

Molecule | apoptosis in RAW cells [1] | osteolysis around plastic implants (micro-CT) ([2]; HA-coated plastic pins presoaked in zoledronate 15 minutes, right femur) | osteolysis around titanium implant (Faxitron radiographs) ([2]; HA-coated titanium pins presoaked in zoledronate 15 minutes, left femur) | peak force to extract the titanium pin implants ([3]; zoledronate-treated HA-coated titanium pins vs control, p<0.0001) | pullout energy ([3]; zoledronate-treated HA-coated titanium pins, p=0.0085 vs control) | bone mineral content (DXA) ([4]; p<0.0001 vs control) | bone mineral density (DXA) ([4]; p<0.0001 vs control) | bone area (DXA) ([4]; p=0.1222 vs control) | amount of bone mass in the periprosthetic area (micro-CT) [5] | increase in total energy to pull-out over control ([6]; 6-month group) | increase in total energy to pull-out over control ([6]; 6-weeks group) | average peak pullout force [6, 8] | energy required to completely pull the pin out of the bone [6, 8] | COX-2 expression [7] | TNF-alpha expression [7]
zoledronate | 100% | not around such implants in the test rats | not around the titanium implants in the test rats | statistically higher | 5.71±3.42 N-m | 0.417 ± 0.064 g | 0.328±0.036 g/cm^2 | 1.265±0.081 | 2.388±0.960 mm^2 | 170.7% | 542.8% | 241.0±95.1 N | 521.6±293.8 N-mm |  | 
CNc1ccc2oc(C[C@H]3O[C@@]4(CC[C@H]3C)O[C@H]([C@H](C)C(=O)c3ccc[nH]3)[C@H](C)C[C@H]4C)nc2c1C(=O)O [A23187] |  |  |  |  |  |  |  |  |  |  |  |  |  | increase | increase
